In assay [1] the test system is KCl depolarized rat aorta. In words: Inhibitory effects on rat aorta contractions induced by KCl (in vitro). Particulars: for activity relative to compound 7 (IC 50): same test, compared with compound 7. The format is cell-based, Wistar rats. The source says: Inhibitory effects on rat aorta contractions induced by KCl: […]
A further assay has as its system SHR rats. Kind of assay: Antihypertensive efficacy in SHR rats (systolic blood pressure, tail cuff). It is filed as in vivo, spontaneously hypertensive rats (SHR). Conditions: for maximum decrease of blood pressure, mm Hg / inhibition in vivo at 8 mg/kg: n = 5; for inhibition in vivo at 8 mg/kg: Rattus norvegicus, po, Table 2, read-out: maximum decrease of blood pressure, %; for in vivo antihypertensive activity, in words: p.os. On the procedure: The systolic blood pressure was measured on the tail of conscious, spontaneously hypertensive rats (SHR), by means of an inflatable rubber cuff and a Digital Pressure meter LE 5000 (Letica Instruments, Barcelone, Spain). Measurements were carried out before administration of the substance, as well as 30 minutes, 1 h, 2, 6, and 24 hours afterwards, respectively. The animals were kept in pre-warmed plastic cylinders during the measurements. The rats with a blood pressure lesser than 160 mm. Hg were discarded. Each compound was tested in 5 animals. Compounds of this invention, or nitrendipine which was used as positive control were given orally in the form of suspensions in 5% acacia gum.

The mark [2] stands for this setting: KCl 80 mM depolarized rat aorta, Table 1, read-out: IC × 10^-8.
Where [3] appears, read: rat aorta contractions induced by KCl 80 mM, read-out: IC 50.
The mark [4] stands for this setting: rat aorta contractions induced by KCl 80 mM.

SMILES strings stand for the structures. Counter-ions that a name gives are not always drawn. Like-named read-outs stand apart in the source and are kept apart here. Some results are limits rather than exact numbers.

For the molecule `COC(=O)C1=C(C)NC(C)=C(C(=O)OC)C1c1ccccc1[N+](=O)[O-]` [Nifedipine, nifedipine, reference compound], the IC50 came out at 7.1 nM in assay [1] (setting [2]) and 7.5 nM in assay [1] (setting [3]). Besides, the “activity relative to compound 7 (IC 50)” value in assay [1] was “about two times less active than compound 7”.

In the case of `CCOC(=O)C1=C(C)NC(C)=C(C(=O)OC)C1c1cccc([N+](=O)[O-])c1` (stereo not drawn) [nitrendipine, reference compound], in the assay with SHR rats (8 mg./kg. p.os), the “maximum decrease of blood pressure, mm Hg” value (“maximum decrease” for short) is 54 mm Hg and the inhibition in vivo at 8 mg/kg came out at 26.3%.

For the molecule `CCOC(=O)C1=C(C)NC(C)=C(C(=O)OC)C1c1cc(OC)cc(OC)c1` (stereo not drawn) [Compound 5, 1,4-dihydro-2,6-dimethyl-4-(3',5'-dimethoxyphenyl)-3,5-pyridinedicarboxylic acid, ethyl methyl ester], the IC50 in assay [1] (setting [2]) amounted to 92 nM.

With `COCCOC(=O)C1=C(C)NC(C)=C(C(=O)OCCOC)C1c1cccc2c1OCO2` [Compound 16, 1,4-dihydro-2,6-dimethyl-4-(2',3'-methylenedioxyphenyl)-3,5-pyridinedicarboxylic acid, dimethoxyethyl ester], in assay [1] (setting [2]), the IC50 was more than 100 nM.

For `CCOC(=O)C1=C(C)NC(C)=C(C(=O)OC)C1c1ccc(OC)c(OC)c1` (stereo not drawn) [Compound 2, 1,4-dihydro-2,6-dimethyl-4-(3',4'-dimethoxyphenyl)-3,5-pyridinedicarboxylic acid, methyl ethyl ester], the IC50 in assay [1] (setting [2]) is more than 100 nM. The “in vitro activity, in words” value in assay [1] (setting [4]) was “little or no activity”.

In the case of `COC(=O)C1=C(C)NC(C)=C(C(=O)OC(C)C)C1c1cccc2c1OCO2` (stereo not drawn) [Compound 13, 1,4-dihydro-2,6-dimethyl-4-(2',3'-methylenedioxyphenyl)-3,5-pyridinedicarboxylic acid, methyl isopropyl ester], the IC50 in assay [1] (setting [2]) was 34 nM. Also, in the assay on SHR rats (8 mg./kg. p.os), the “maximum decrease” value amounted to 10 mm Hg and the inhibition in vivo at 8 mg/kg is 5.2%.

On to `COCCOC(=O)C1=C(C)NC(C)=C(C(=O)OC(C)C)C1c1cccc2c1OCO2` (stereo not drawn) [Compound 11, 1,4-dihydro-2,6-dimethyl-4-(2',3'-methylenedioxyphenyl)-3,5-pyridinedicarboxylic acid, isopropyl methoxyethyl ester], for which the IC50 in assay [1] (setting [2]) turned out to be 91 nM.

For the molecule `CCOC(=O)C1=C(C)NC(C)=C(C(=O)OC)C1c1cccc2c1OCCO2` (stereo not drawn) [Compound 8, 1,4-dihydro-2,6-dimethyl-4-(2',3'-ethylenedioxyphenyl)-3,5-pyridinedicarboxylic acid, methyl ethyl ester], in assay [1] (setting [2]), the IC50 came to 45 nM. Also, the “in vitro activity, in words” value in assay [1] (setting [4]) is “rather active in vitro”; in assay [1] (rat aorta contractions induced by KCl 80 mM, listed as IQB-838 V), “very active”. Also, in the assay on SHR rats (8 mg./kg. p.os), the “maximum decrease” value came to 12 mm Hg. The inhibition in vivo at 8 mg/kg with SHR rats (8 mg./kg. p.os) came to 7.2%. In addition, the “in vivo antihypertensive activity, in words” value is “a little antihypertensive effect” in the assay with SHR rats (SHR rats) and “very active” with SHR rats (SHR rats, listed as IQB-838 V).

Consider `CCOC(=O)C1=C(C)NC(C)=C(C(=O)OC)C1c1cccc2c1OCO2` (stereo not drawn) [Compound 7, 1,4-dihydro-2,6-dimethyl-4-(2',3'-methylenedioxyphenyl)-3,5-pyridinedicarboxylic acid, ethyl methyl ester], for which the IC50 in assay [1] (setting [2]) is 3.1 nM; in assay [1] (setting [3]) it was 3.5 nM. The “in vitro activity, in words” value in assay [1] (setting [4]) is “the most active within the series of methyl ethyl ester derivatives”; in assay [1] (rat aorta contractions induced by KCl 80 mM, listed as IQB-837 V) it was “very active”. Further, the “decreasing blood pressure by” value in the assay on SHR rats (8 mg./kg. p.os, SHR rats) is given as 30%. The “maximum decrease” value with SHR rats (8 mg./kg. p.os) was found to be 65 mm Hg. In the assay with SHR rats (8 mg./kg. p.os), the inhibition in vivo at 8 mg/kg stood at 33%. Also, the “in vivo antihypertensive activity, in words” value in the assay on SHR rats (SHR rats) is “as active as nitrendipine”; in the assay on SHR rats (SHR rats, listed as IQB-837 V), “very active”.

For the molecule `CCOC(=O)C1=C(C)NC(C)=C(C(=O)OC)C1c1cccc(OC)c1OC` (stereo not drawn) [Compound 4, 1,4-dihydro-2,6-dimethyl-4-(2',3'-dimethoxyphenyl)-3,5-pyridinedicarboxylic acid, ethyl methyl ester], in assay [1] (setting [2]), the IC50 is more than 100 nM.

Turning to `CCOC(=O)C1=C(C)NC(C)=C(C(=O)OC(C)C)C1c1cccc2c1OCO2` (stereo not drawn) [Compound 15, 1,4-dihydro-2,6-dimethyl-4-(2',3'-methylenedioxyphenyl)-3,5-pyridinedicarboxylic acid, ethyl isopropyl ester], the IC50 in assay [1] (setting [2]) was 2.1 nM. In assay [1] (setting [3]), the IC50 was found to be 2.1 nM. Further, the “activity relative to compound 7 (IC 50)” value in assay [1] is listed as “as active as compound 7”. Further, in the assay with SHR rats (8 mg./kg. p.os), the “maximum decrease” value is given as 62 mm Hg and the inhibition in vivo at 8 mg/kg stood at 32.4%. Further, the “in vivo antihypertensive activity, in words” value in the assay on SHR rats (SHR rats) is reported as “also active in vivo”.

Regarding `CCOC(=O)C1=C(C)NC(C)=C(C(=O)OC)C1c1cc(OC)c(OC)c(OC)c1` (stereo not drawn) [Compound 1, 1,4-dihydro-2,6-dimethyl-4-(3',4',5'-trimethoxyphenyl)-3,5-pyridinedicarboxylic acid, methyl ethyl ester], the IC50 in assay [1] (setting [2]) is more than 100 nM. Besides, in assay [1] (setting [4]), the “in vitro activity, in words” value was “little or no activity”. Also, in the assay on SHR rats (8 mg./kg. p.os), the “maximum decrease” value is recorded as 9.8 mm Hg and the inhibition in vivo at 8 mg/kg was determined as 5%.

With `CCOC(=O)C1=C(C)NC(C)=C(C(=O)OC)C1c1ccccc1OCOC` (stereo not drawn) [Compound 6, 1,4-dihydro-2,6-dimethyl-4-(2'-methoxymethoxy-phenyl)-3,5-pyridinedicarboxylic acid, ethyl methyl ester], the IC50 in assay [1] (setting [2]) amounted to 12 nM. In the assay with SHR rats (8 mg./kg. p.os), the “maximum decrease” value is given as 34 mm Hg and the inhibition in vivo at 8 mg/kg turned out to be 15.2%. For the same molecule, the “in vivo antihypertensive activity, in words” value in the assay with SHR rats (SHR rats) is on record as “also active in vivo”.

In the case of `COC(=O)C1=C(C)NC(C)=C(C(=O)OC)C1c1cccc2c1OCO2` [Compound 9, 1,4-dihydro-2,6-dimethyl-4-(2',3'-methylenedioxyphenyl)-3,5-pyridinedicarboxylic acid, dimethyl ester], the IC50 in assay [1] (setting [2]) was determined as 83 nM.

For `COC(=O)C1=C(C)NC(C)=C(C(=O)OCC(C)C)C1c1cccc2c1OCO2` (stereo not drawn) [Compound 10, 1,4-dihydro-2,6-dimethyl-4-(2',3'-methylenedioxyphenyl)-3,5-pyridinedicarboxylic acid, methyl isobutyl ester], the IC50 in assay [1] (setting [2]) was found to be 12 nM. Further, in the assay on SHR rats (8 mg./kg. p.os), the “maximum decrease” value worked out at 48 mm Hg and the inhibition in vivo at 8 mg/kg turned out to be 23.5%. The “in vivo antihypertensive activity, in words” value in the assay on SHR rats (SHR rats) is “also active in vivo”.

Take `CC1=C(C(=O)OC(C)C)C(c2cccc3c2OCO3)C(C(=O)OC(C)C)=C(C)N1` [Compound 12, 1,4-dihydro-2,6-dimethyl-4-(2',3'-methylenedioxyphenyl)-3,5-pyridinedicarboxylic acid, diisopropyl ester]: the IC50 in assay [1] (setting [2]) is more than 100 nM.

For the molecule `CCOC(=O)C1=C(C)NC(C)=C(C(=O)OCC)C1c1cccc2c1OCO2` [Compound 14, 1,4-dihydro-2,6-dimethyl-4-(2',3'-methylenedioxyphenyl)-3,5-pyridinedicarboxylic acid, diethyl ester], the IC50 in assay [1] (setting [2]) was more than 100 nM.

With `COC(=O)C1=C(C)NC(C)=C(C(=O)OCc2ccccn2)C1c1cccc2c1OCO2` (stereo not drawn) [Compound 17, 1,4-dihydro-2,6-dimethyl-4-(2',3'-methylenedioxyphenyl)-3,5-pyridinedicarboxylic acid, methyl, 2-pyridylmethyl ester, hydrochloride], the IC50 in assay [1] (setting [2]) is more than 100 nM.

Regarding `CCOC(=O)C1=C(C)NC(C)=C(C(=O)OC)C1c1cc(OC)c(O)c(OC)c1` (stereo not drawn) [Compound 3, 1,4-dihydro-2,6-dimethyl-4-(3',5'-dimethoxy-4'-hydroxyphenyl)-3,5-pyridinedicarboxylic acid, methyl ethyl ester], the IC50 in assay [1] (setting [2]) was more than 100 nM. The “in vitro activity, in words” value in assay [1] (setting [4]) is “little or no activity”.

Values taken from US4722931A, “Calcium antagonist” (Laboratorios Delagrange, priority 1984, dated 1988).
